Test results as given in patent US11261179B2, “Small molecules” (University of Dundee, priority 2017, dated 2022).
Values joined by “and” are separate entries in the source; they are usually repeats but may differ in a detail not shown here. Equal values may be shown once. “Also recorded” adds a separate entry of the source.

Legend:
[1] = target: T1, pVHL30 (long isoform of VHL) (Homo sapiens, UniProt P40337); test: Western blot of VHL levels in HeLa cells; format: cell-based
T1 construct: endogenous in cells; host or cells: HeLa
T1 sequence (P40337 whole entry, canonical isoform): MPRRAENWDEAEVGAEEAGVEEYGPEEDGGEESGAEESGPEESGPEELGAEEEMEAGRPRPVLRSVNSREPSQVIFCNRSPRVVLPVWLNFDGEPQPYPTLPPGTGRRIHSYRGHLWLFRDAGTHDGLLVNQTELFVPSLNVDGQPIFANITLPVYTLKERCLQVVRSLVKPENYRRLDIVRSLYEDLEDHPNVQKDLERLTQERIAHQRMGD
Protocol: (§1) For single time point treatment experiments, cells were transferred in 6-well plates with 5×10^5 cells per well in 2 ml media in order to achieve 80% confluence the following day. Stock concentrations of compounds were prepared by solubilizing the powder in 100% v/v DMSO to the final desired stock concentration.
(§2) On the day of treatment, all compound samples were prepared as 100-fold concentrated compound solution using DMEM just before treatment. The experiment samples (20 μL) were added to the 6 well plate containing 2 ml of media. The final DMSO concentration was 0.1% v/v. Cells were incubated at 37° C. and 5% CO2 for the desired time before harvesting.
(§3) For time dependent treatment, cells were transferred in 6-well plates with 3×10^5 cells per well in 2 ml media. Samples were prepared as detailed above or the single time point experiments. Treatment was conducted at given time points prior to harvest.
Cells were transferred in 6-well plates with 5×10^5 cells per well in 2 ml media in order to achieve 80% confluence the day after. At t=0, MLN4924 was added into the desired wells at 3 μM final concentration and 0.1% v/v of DMSO. DMSO (0.1% v/v final conc.) was added to the remaining wells in order to match identical conc. of vehicle in all wells. At t=3 h, MG 132 was added into the desired wells at 50 μM final conc. and 0.1% v/v of DMSO. DMSO (0.1% v/v final conc.) was added to the remaining wells in order to achieve the same conc. of vehicle in all the wells. […] DMSO (0.1% v/v final conc.) was added to the remaining wells in order to obtain the same conc. of vehicle in all the wells. The total final concentration of DMSO was therefore 0.3% v/v. Plates were incubated for 4 h at 37° C. and 5% CO2 before harvesting.
Cells were transferred in 6-well plates with 5×10^5 cells per well in 2 ml media in order to achieve 80% confluence the day after. […] Plates were incubated for the desired time at 37° C. and 5% CO2 before harvesting.
For this experiments, cells were transferred in 6-well plates with 5×10^5 cells per well in 2 ml media in order to achieve 80% confluence the day after. […] Plates were incubated for the desired time at 37° C. and 5% CO2 before harvesting.
(§4) Cells were lysed in lysis buffer (20 mM Tris pH 8, 150 mM NaCl, 1% Triton x100) and a protease inhibitor cocktail (Roche) per 10 ml buffer. For protein extracts, the dishes were placed on ice. The media was aspirated and the tissue layer washed twice with ice-cold phosphate buffer saline (PBS). Lysis buffer (120 μl) was added and the cells detached from the surface with a cell scraper. After removal of the insoluble fraction by centrifugation, the protein concentration of the supernatant was determined by Pierce™ Coomassie (Bradford) Protein Assay Kit. Protein extracts were fractionated by SDS-PAGE on 4-12% Tris-Acetate NuPage® Novex® (Life Technologies) polyacrylamide gels and transferred to a nitrocellulose membrane using wet transfer. The membrane was then blocked with 5% w/v Bovine serum albumin (BSA) in Tris-buffered saline (TBS) with 0.1% w/v Tween-20. For detecting proteins the following primary antibodies in the given concentrations were used: anti-β-Actin (Cell Signaling Technology, 4970S, 13E5) 1:2000, anti-VHL (Cell Signaling Technology, #68547) 1:1000, anti-Hif-1α (BD Biosciences, 610959, clone 54) 1:1000, anti-hydroxy-HIF-1α (Hyp564) (Cell Signaling Techonology; #3434) 1:1000, anti-PHD2 (Bethyl Laboratories; A300-322A) 1:1000, anti-PHD3 (Bethyl Laboratories; A300-327A) 1:1000, anti-CRBN (Proteintech; 11435-1-AP) 1:1000.
(§5) Following incubation with a horseradish peroxidase-conjugated secondary antibody (Cell Signaling Technology), the signal was developed using enhanced chemiluminescence (ECL) Western Blotting Detection Kit (Amersham) on Amersham Hyperfilm ECL film (Amersham).
Band quantification was performed using ImageJ software and reported as relative amount as ratio of the each protein band relative to the lane's loading control. […]

[2] = tested on: HIF-1α / hydroxylated HIF-1α (Hdy-HIF-1α); test: Western blot of HIF-1α and Hdy-HIF-1α levels in HeLa cells; format: cell-based, Human; details: HeLa, 1 μM, 10 h
Protocol: as §1, §2, §3, §4, §5
(§6) Band quantification was performed using ImageJ software and reported as relative amount as ratio of the each protein band relative to the lane's loading control. The values obtained were then normalized to 0.1% DMSO vehicle control.

pVHL30 = target: T2, pVHL30 (Homo sapiens, UniProt P40337); test: Western blot of VHL levels in U2OS cells; format: cell-based; details: for profile of cellular activity: 10 h, 1 nM-100 μM; for cellular efficacy at longer time points / time of treatment to complete degradation of pVHL30: time course
T2 construct: endogenous in cells; host or cells: U2OS
T2 sequence (P40337 whole entry): as the sequence (P40337 whole entry, canonical isoform) above
Protocol: as §1, §2, §3, §4, §5, §6

[3] = target: T3, VCB (biotinylated VCB and His-VCB) (Homo sapiens, UniProt P40337); test: AlphaLISA proximity assay of ternary complex formation; format: binding; details: VCB 20 nM each, 0.5 to 200 nM Homo-PROTAC
T3 construct: His tag (printed 'Hiss-VCB'); biotin (chemical labelling with NHS-PEG4-biotin); on the other VCB population
T3 sequence (P40337 54-213 limits assumed): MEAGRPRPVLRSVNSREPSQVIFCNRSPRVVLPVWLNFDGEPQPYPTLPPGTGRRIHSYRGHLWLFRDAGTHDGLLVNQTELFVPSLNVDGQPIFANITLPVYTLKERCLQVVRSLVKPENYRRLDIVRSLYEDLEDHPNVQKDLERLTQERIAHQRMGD
T3 sequence (Q15370 1-104 partner limits assumed): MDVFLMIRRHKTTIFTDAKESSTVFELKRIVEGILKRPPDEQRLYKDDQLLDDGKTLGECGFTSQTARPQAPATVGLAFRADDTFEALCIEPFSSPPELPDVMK
T3 sequence (Q15369 17-112 partner limits assumed): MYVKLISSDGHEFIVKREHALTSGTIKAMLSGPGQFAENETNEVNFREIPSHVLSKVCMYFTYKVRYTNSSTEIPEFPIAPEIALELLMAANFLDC
Protocol: The VCB complex was mixed with EZ-link NHS-PEG4-biotin (Thermo Scientific) in a 1:1 molar ratio and incubated at room temperature for 1 h. The reaction was quenched using 1 M Tris-HCl, pH 7.5, and unreacted NHS-biotin was removed with a PD-10 MiniTrap desalting column (GE Healthcare) equilibrated with 20 mM HEPES, pH 7.5, 150 mM NaCl and 1 mM DTT.
All assays were performed at room temperature in 384-well plates with a final assay volume of 25 μL per well; plates were sealed with transparent film between addition of reagents. All reagents were prepared as 5× stocks diluted in 50 mM HEPES, pH 7.5, 100 mM NaCl, 0.1% (w/v) bovine serum albumin and 0.02% (w/v) 3-[(cholamidopropyl)dimethylammonio]-1-propanesulfonate (CHAPS). Biotinylated VCB (20 nM final) and Hiss-VCB (20 nM final) were incubated with a range of Homo-PROTAC concentrations (0.5 to 200 nM; three-in-five serial dilution) for 1 h. Anti-His acceptor beads (PerkinElmer, 10 μg/mL final) were added and plates were incubated for another hour. Streptavidin-coated donor beads (PerkinElmer, 10 μg/mL final) were added and plates were incubated for a final 1 h. Plates were read on a PHERAstar FS (BMG Labtech) using an optic module with an excitation wavelength of 680 nm and emission wavelength of 615 nm. Intensity values were plotted against PROTAC concentration on a logo scale.

[4] = target: pVHL19 (VCB complex: VHL with Elongin B and Elongin C) (Homo sapiens, UniProt P40337); test: ITC titration against VCB, short VHL isoform; format: binding; details: ITC; for Kd / ΔG / ΔH / α (cooperativity/avidity) / −TΔS: pVHL19; for n (stoichiometry): pVHL19, 25° C.
Chain of pVHL19 (VCB complex: VHL with Elongin B and Elongin C) (P40337 54-213): as the sequence (P40337 54-213 limits assumed) above
Chain of pVHL19 (VCB complex: VHL with Elongin B and Elongin C) (Q15370 1-104 partner limits assumed): as the sequence (Q15370 1-104 partner limits assumed) above
Chain of pVHL19 (VCB complex: VHL with Elongin B and Elongin C) (Q15369 17-112 partner limits assumed): as the sequence (Q15369 17-112 partner limits assumed) above
Protocol: Titrations were performed on an ITC200 micro-calorimeter (GE Healthcare). […] The final DMSO concentration was 0.15% v/v. VBC protein experiments were carried out in a buffer containing 20 mM Bis-tris propane, 150 mM NaCl, 1 mM TCEP, 0.15% v/v DMSO, pH 7.4. The titrations consisted of 19 injections of 2 μL compounds solution (150 μM, in the syringe) at a rate of 2 s/μL at 120 s time intervals into the VCB protein solution (20 μM, in the cell). An initial injection of compound solution (0.4 μL) was made and discarded during data analysis. All experiments were performed at 25° C., whilst stirring the syringe at 600 rpm. The data were fitted to a single binding site model to obtain the stoichiometry n, the dissociation constant Kd and the enthalpy of binding ΔH using the Microcal LLC ITC200 Origin software provided by the manufacturer.

VCB complex = VCB complex (Homo sapiens, UniProt P40337); test: Size exclusion chromatography of VCB complex formation; format: binding; details: SEC, VCB 50 μM, compound 30 μM
Chain of VCB complex (P40337 54-213 limits assumed): as the sequence (P40337 54-213 limits assumed) above
Chain of VCB complex (Q15370 1-104 partner limits assumed): as the sequence (Q15370 1-104 partner limits assumed) above
Chain of VCB complex (Q15369 17-112 partner limits assumed): as the sequence (Q15369 17-112 partner limits assumed) above
Protocol: SEC experiments were carried out in a AKTA pure system (GE Healthcare) at room temperature. The oligomeric state of the VCB complex in solution was analyzed by gel filtration in a buffer containing 20 mM Bis-Tris (pH 7), 150 mM NaCl and 1 mM 1,4-dithiothreitol (DTT) using a Superdex 200 Increase 10/300 GL column (GE Healthcare) calibrated with globular proteins of known molecular weight (GE Healthcare, 28-4038-41/42). […] Sample volume for each injection was 200 μL, and the flow rate was 0.5 mL/min. Peak elution was monitored using ultraviolet absorbance at 280 nm.

Row | degradation of pVHL over time ([1]; time course, also longer time points) | profile of cellular activity (pVHL30) | cellular efficacy at longer time points (pVHL30) | time of treatment to complete degradation of pVHL30 (pVHL30) [h] | AlphaLISA intensity signal / complex formation [3] | Kd [4] [nM] | ΔG [4] [kcal/mol] | ΔH [4] [kcal/mol] | α (cooperativity/avidity) [4] | −TΔS [4] [kcal/mol] | n (stoichiometry) [4] | SMILES | HIF-1α level [2] | shift of VCB peak / ternary complex formation (VCB complex) | depletion/degradation of VHL (pVHL30) ([1]; 1 μM, 10 h) | protein levels of Hdy-HIF-1α [2]
1 | Incomplete degradation | consistent profile of cellular activity | lost its cellular efficacy after 36 h | 2 | negligible levels of complex formation | 41 ± 15 | -10.3 ± 0.2 | -6.9 ± 0.3 | 4 | -3.5 ± 0.5 | 0.98 ± 0.09 | Cc1ncsc1-c1ccc(CNC(=O)[C@@H]2C[C@@H](O)CN2C(=O)[C@@H](NC(=O)COCCOCCOCCOCC(=O)N[C@H](C(=O)N2C[C@H](O)C[C@H]2C(=O)NCc2ccc(-c3scnc3C)cc2)C(C)(C)C)C(C)(C)C)cc1 [CM09, N^1,N^14-bis((S)-1-((2S,4R)-4-hydroxy-2-((4-(4-methylthiazol-5-yl)benzyl)carbamoyl)pyrrolidin-1-yl)-3,3-dimethyl-1-oxobutan-2-yl)-3,6,9,12-tetraoxatetradecanediamide] | slight increase | formation of a ternary complex eluting at identical retention volume | – | –
2 | – | consistent profile of cellular activity | retained their efficacy | 2 | negligible levels of complex formation | 32 ± 5 | -10.2 ± 0.1 | -9.4 ± 0.1 | 6 | -0.8 ± 0.2 | 0.7 and 0.73 ± 0.01 | Cc1ncsc1-c1ccc(CNC(=O)[C@@H]2C[C@@H](O)CN2C(=O)[C@@H](NC(=O)COCCOCCOCCOCCOCC(=O)N[C@H](C(=O)N2C[C@H](O)C[C@H]2C(=O)NCc2ccc(-c3scnc3C)cc2)C(C)(C)C)C(C)(C)C)cc1 [CM10, N^1,N^17-bis((S)-1-((2S,4R)-4-hydroxy-2-((4-(4-methylthiazol-5-yl)benzyl)carbamoyl)pyrrolidin-1-yl)-3,3-dimethyl-1-oxobutan-2-yl)-3,6,9,12,15-pentaoxaheptadecanediamide] | slight increase | formation of a ternary complex eluting at identical retention volume | total knockdown; also recorded: complete depletion | detectable albeit low increase
